The source of these data is patent publication US7015241B2, “Appetite-stimulating agents and remedies for anorexia” (Eisai Co., Ltd., priority 2001, dated 2006).

One data set has as its system BDF1 mice. The data set is described as follows: Appetite-stimulating and body weight-increasing effects, intraperitoneal administration once a day for 15 days. Type of data set: in vivo, mouse. The note with it: BDF1 mice (7 weeks old, female), i.p. once a day for 15 days, vs control group; for body weight: FIG. 1; for food intake: FIG. 2. The protocol: (§1) A subjective compound was suspended in saline containing 3.5% dimethylsulfoxide and 6.5% Tween 80, and intraperitoneally administered to BDF1 mice (7 weeks old, female) in a given amount once a day for 15 days (day 0 to day 14). To mice of a control group, saline containing 3.5% dimethylsulfoxide and 6.5% Tween 80 was intraperitoneally administered. Administration was conducted at 1 p.m. every day, and the body weight (day 0 to day 15) and the food intake since the preceding day (day 1 to day 15) were weighed immediately before the administration. The experiments were conducted using 5 mice per group for each of the drug-administered group and the control group. The numbers of the compound examples are the same as in the list described above (hereinafter, the same applies).

For a further data set, the system named is mice. Description: Toxicity observation on successive administration to mice for 15 days. Type of data set: in vivo. The conditions noted are these: 100 mg/kg and 200 mg/kg successively for 15 days. The protocol: as §1
Thus, it is considered that the compound represented by the general formula (I) has low toxicity.

Another data set relates to Interleukin-1-beta. Description: Gene expression analysis of white adipose tissues by GeneChip (Affymetrix) Murine Genome U74A. The conditions noted are these: day 15, 200 mg/kg i.p. once a day for 15 days, BDF1 mice, Accession M15131. Type of data set: in vivo, mouse. The protocol:
(§2) The compound of the Compound 17 was suspended in saline containing 3.5% dimethylsulfoxide and 6.5% Tween 80, and intraperitoneally administered to BDF1 mice (7 weeks old, female) in an amount of 200 mg/kg once a day for 15 days (day 0 to day 14). To mice of a control group, saline containing 3.5% dimethylsulfoxide and 6.5% Tween 80 was intraperitoneally administered. The experiments were conducted using 5 mice per group for each of the drug-administered group and the control group. On day 15, white adipose tissues were collected from the mice of the drug-administered group and the control group, and were examined for expression levels of mRNA using GeneChip (Affymetrix) Murine Genome U74A. The experimental operation was conducted in accordance with GeneChip Expression Analysis Technical Manual, and the quantitative analysis was conducted using GeneChip Software.

For data set [1], the system named is griPGHS (Glucocorticoid-regulated inflammatory prostaglandin G/H synthase). The description is as above. Type of data set: in vivo, mouse. The conditions noted are these: day 15, 200 mg/kg i.p. once a day for 15 days, BDF1 mice, Accession M88242. The protocol:
as §2

The next data set relates to Interleukin-6. The data set is described as above. Type of data set: in vivo, mouse. The note with it: day 15, 200 mg/kg i.p. once a day for 15 days, BDF1 mice, Accession X54542. The protocol:
as §2

As to `N#Cc1cccc(S(=O)(=O)Nc2cccc3c(C#N)c[nH]c23)c1` [Compound 51, 3-Cyano-N-(3-cyano-1H-indol-7-yl)benzenesulfonamide], in the data set with BDF1 mice, the body weight result is listed as “increased” and the food intake result is “increased”. For the same compound, in the data set with mice, the body weight increase entry is “body weight increase depending on dose”, the “condition of the mice” value is reported as “quite normal condition” and the toxicity entry is given as “no observation indicating toxicity”.
Turning to `N#Cc1ccc(S(=O)(=O)Nc2cccc3c(Cl)c[nH]c23)cc1` [Compound 10, N-(3-Chloro-1H-indol-7-yl)-4-cyanobenzenesulfonamide], in the data set with BDF1 mice, the body weight entry is recorded as “increased” and the food intake entry is “increased”. Also, in the data set with mice, the body weight increase entry is reported as “body weight increase depending on dose”, the “condition of the mice” value is reported as “quite normal condition” and the toxicity entry was “no observation indicating toxicity”.
As for `Cc1ccc(NS(=O)(=O)c2cccc(C#N)c2)c2[nH]cc(C#N)c12` [Compound 94, 3-Cyano-N-(3-cyano-4-methyl-1H-indol-7-yl)-benzenesulfonamide], in the data set on BDF1 mice, the body weight entry was “increased” and the food intake entry is reported as “increased”. In the data set on mice, the body weight increase entry is reported as “body weight increase depending on dose”, the “condition of the mice” value was “quite normal condition” and the toxicity result is listed as “no observation indicating toxicity”.
`N#Cc1c[nH]c2c(NS(=O)(=O)c3cccc(Cl)c3)cccc12` [Compound 17, 3-Chloro-N-(3-cyano-1H-indol-7-yl)benzenesulfonamide]: in the data set with BDF1 mice, the body weight entry was “increased” and the food intake entry is listed as “increased”. Moreover, in the data set with mice, the body weight increase entry is on record as “body weight increase depending on dose”, the “condition of the mice” value is listed as “quite normal condition” and the toxicity entry is on record as “no observation indicating toxicity”. For the same compound, the “Expression level ratio (drug-administered group/control group), Interleukin-1-beta mRNA” value in the data set on Interleukin-1-beta is on record as 22%. Also, the “Expression level ratio (drug-administered group/control group), griPGHS mRNA” value in data set [1] was 26%. Besides, in the data set with Interleukin-6, the “Expression level ratio (drug-administered group/control group), Interleukin-6 mRNA” value turned out to be 24%.
